# Measurements reported in US11524966B1 (Valo Early Discovery, Inc., priority 2017, dated 2022).
# pIC50: −log10 of the molar value.
# Biological target: T1, USP28 (His-tagged USP28-FL-mammalian) (Homo sapiens, UniProt Q96RU2)
# T1 construct: Expression of USP28 (1-1077)-TEV-6*His (pTT5 vector); made in house; host or cells: Expi293f cells (pTT5 vector)
# T1 sequence (Q96RU2 1-1077): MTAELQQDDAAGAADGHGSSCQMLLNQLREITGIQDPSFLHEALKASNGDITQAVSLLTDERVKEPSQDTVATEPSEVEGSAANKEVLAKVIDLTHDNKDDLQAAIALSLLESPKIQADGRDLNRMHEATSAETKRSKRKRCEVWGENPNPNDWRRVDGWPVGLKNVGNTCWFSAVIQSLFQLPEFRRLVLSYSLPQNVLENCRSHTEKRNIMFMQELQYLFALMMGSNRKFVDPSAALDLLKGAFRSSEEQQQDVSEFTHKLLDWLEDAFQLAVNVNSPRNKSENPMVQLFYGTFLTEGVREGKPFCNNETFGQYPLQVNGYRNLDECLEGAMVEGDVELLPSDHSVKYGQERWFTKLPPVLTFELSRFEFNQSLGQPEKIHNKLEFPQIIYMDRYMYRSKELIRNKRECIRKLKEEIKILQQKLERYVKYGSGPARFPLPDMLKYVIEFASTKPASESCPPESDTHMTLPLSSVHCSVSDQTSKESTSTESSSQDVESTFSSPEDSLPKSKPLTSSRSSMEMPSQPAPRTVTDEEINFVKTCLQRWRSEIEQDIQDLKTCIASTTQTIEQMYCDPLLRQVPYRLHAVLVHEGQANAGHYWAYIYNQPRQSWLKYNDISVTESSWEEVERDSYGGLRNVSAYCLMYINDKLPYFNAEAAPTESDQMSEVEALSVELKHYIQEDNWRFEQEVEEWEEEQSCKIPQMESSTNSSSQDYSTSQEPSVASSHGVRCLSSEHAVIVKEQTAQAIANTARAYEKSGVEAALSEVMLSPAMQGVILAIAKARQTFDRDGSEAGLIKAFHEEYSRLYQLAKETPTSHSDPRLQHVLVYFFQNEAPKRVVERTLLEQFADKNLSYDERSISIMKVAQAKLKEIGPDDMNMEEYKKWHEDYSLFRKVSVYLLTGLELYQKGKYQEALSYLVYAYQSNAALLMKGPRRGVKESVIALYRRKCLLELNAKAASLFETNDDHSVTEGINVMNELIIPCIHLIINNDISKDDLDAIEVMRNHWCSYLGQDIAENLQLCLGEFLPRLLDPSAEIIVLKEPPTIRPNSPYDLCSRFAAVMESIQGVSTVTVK
# Test: Ubiquitin-Rhodamine 110 Assay for USP28 Activity, Example A-1(a)
# Assay type: biochemical
# Conditions: Ubiquitin-Rhodamine 110 assay, Example A-1(a); read-out: USP28 A-1(a) IC50 range
# Procedure, shortened: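 IC50 from 4-parameter logistic fit of percent inhibition versus no-enzyme and DMSO controls; compounds 25 μM to 1.3 nM, 3-fold. Ub-Rh110 cleavage (25 nM, below Km) by […] mammalian-expressed USP28-FL-His ran 45 min at room temperature, stopped with 10 mM citric acid, read ex 485/em 535.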
row,SMILES,pIC50
1,"CO[C@@H]1CN(c2ccc3c(c2F)OC[C@H](NC(=O)c2sc4nc(C)ccc4c2N)C3)C[C@H]1N [Example 91, 3-amino-N-[(3R )-7-[(3R,4R)-3-amino-4-methoxypyrrolidin-1-yl]-8-fluoro-3,4-dihydro-2H-1-benzopyran-3-yl]-6-methylthieno[2,3-b]pyridine-2-carboxamide]",6.70 to 7.30
2,"CO[C@H]1CN(c2ccc3c(c2F)OC[C@H](NC(=O)c2sc4nc(C)ccc4c2N)C3)C[C@@H]1N [Example 92, 3-amino-N-[(3R)-7-[(3S,4S)-3-amino-4-methoxypyrrolidin-1-yl]-8-fluoro-3,4-dihydro-2H-1-benzopyran-3-yl]-6-methylthieno[2,3-b]pyridine-2-carboxamide]",7.30 to 9.00
3,"Cc1cnc2c(N)c(C(=O)N[C@H]3CCc4nc(N5CC6CC(C5)N6)ccc4C3)sc2n1 [Example 23-11, 7-amino-N-[(6S)-2-{3,6-diazabicyclo[3.1.1]heptan-3-yl}-5,6,7,8-tetrahydroquinolin-6-yl]-3-methylthieno[2,3-b]pyrazine-6-carboxamide]",5.70 to 6.70
4,"Cc1nc2sc(C(=O)N[C@H]3COc4cc(N5CCNCC5)ncc4C3)c(N)c2cc1F [Example 72, (R)-3-amino-5-fluoro-6-methyl-N-(7-(piperazin-1-yl)-3,4-dihydro-2H-pyrano[3,2-c]pyridin-3-yl)thieno[2,3-b]pyridine-2-carboxamide]",7.30 to 9.00
5,"Cc1ccc2c(N)c(C(=O)N[C@H]3Cc4ccc(N5CCNCC5)nc4C4(CC4)C3)sc2n1 (single isomer, unassigned) [Example 31-4, 3-amino-6-methyl-N-[(6′R)-2′-(piperazin-1-yl)-6′,7′-dihydro-5′H-spiro[cyclopropane-1,8′-quinoline]-6′-yl]thieno[2,3-b]pyridine-2-carboxamide]",7.30 to 9.00
6,"CCc1cnc2sc(C(=O)N[C@@H]3COc4cc(N5CCNCC5)ccc4C3)c(N)c2n1 [Example 37, (S)-7-amino-2-ethyl-N-(7-(piperazin-1-yl)chroman-3-yl)thieno[2,3-b]pyrazine-6-carboxamide]",< 5.70
7,"Cc1nc2sc(C(=O)N[C@H]3COc4cc(N5CC6CCC(C5)N6)c(F)cc4C3)c(N)c2s1 [Example 47, N-((3R)-7-(3,8-diazabicyclo[3.2.1]octan-3-yl)-6-fluorochroman-3-yl)-6-amino-2-methylthieno[2,3-d]thiazole-5-carboxamide]",5.70 to 6.70
8,"Cc1ccc2c(N)c(C(=O)N[C@H]3COc4cc([C@H]5CCNC[C@H]5O)ccc4C3)sc2n1 [Example 62, 3-amino-N-((R)-7-((3S,4R)-3-hydroxypiperidin-4-yl)chroman-3-yl)-6-methylthieno[2,3-b]pyridine-2-carboxamide]",7.30 to 9.00
9,"Cc1ccc2c(N)c(C(=O)N[C@H]3COc4cc(N5C[C@H]6CCNC[C@H]65)ccc4C3)sc2n1 (single isomer, unassigned) [Example 33-4]",7.30 to 9.00
10,"Cc1ccc2c(N)c(C(=O)N[C@H]3COc4c(F)c(N5CCNCC5)c(F)c(F)c4C3)sc2n1 [Example 35, 3-amino-6-methyl-N-[(3R)-5,6,8-trifluoro-7-(piperazin-1-yl)-3,4-dihydro-2H-1-benzopyran-3-yl]thieno[2,3-b]pyridine-2-carboxamide]",7.30 to 9.00
11,"Cc1ccc2c(N)c(C(=O)N[C@H]3COc4cc([C@@H]5CCNC[C@H]5F)ccc4C3)sc2n1 [Example 81, 3-amino-N-((R)-7-((3S,4S)-3-fluoropiperidin-4-yl)chroman-3-yl)-6-methylthieno[2,3-b]pyridine-2-carboxamide]",7.30 to 9.00
12,"O=C(N[C@H]1COc2cc(N3CCNCC3)ccc2C1)c1cnc2c(c1)CC[C@H]2O [Example 57, (R)-7-hydroxy-N-((R)-7-(piperazin-1-yl)chroman-3-yl)-6,7-dihydro-5H-cyclopenta[b]pyridine-3-carboxamide]",< 5.70
